Tested on: STZ high-blood-glucose rats
Experiment: Efficacy test: blood glucose in streptozotocin (STZ) induced high-blood-glucose rats
Type: in vivo
Details: STZ model male SD rats, mean ± SD, n = 10
Experimental: Sixty of male SD rats with SPF grade, weighed 200-220 g. Tested drugs (TL-1, TL-2 and TL-3) were powder of the extract respectively prepared by Examples 3, 8 and 9. SD rats were fasted overnight after one-week adaptation, intraperitoneal and injected a solution of 2% (W/V) STZ prepared with […] citric acid buffer solution (pH 4.4) (65 mg/kg). Three days later, the blood was sampled from tail vein to assay blood glucose. Those animals with blood glucose level equal to or higher than 16.7 mmol/L were considered to be successful model. The modeled rats were randomly divided into model group, Metformin (125 mg/kg) group and different treatment groups (corresponding to 15.5 g crude drugs/kg). After one-week adaptation and the blood glucose detection, rats were administered by gastric infusion, once a day. All of the drugs were diluted with physiological saline to prepare into suspension for administration. Animals were free to access of food and water during the 15-day testing period. At the seventh and fourteenth day after administration, the rats were fasted for two hours after administration. Respectively, blood was sampled from tail vein to assay blood glucose with blood glucose meter (one-touch ultra). At the same time, the body weights of the rats were measured. Results were expressed as mean±SD ( X±SD), and t-test was used to evaluate the significant difference of measurement data between two groups.

[1] = gastric infusion once a day, Metformin 125 mg/kg, TL 15.5 g crude drugs/kg, fasted 2 h, tail vein blood

CN(C)C(=N)N=C(N)N [Metformin]
Blood glucose level before administration (baseline before gastric infusion): 21.61 ± 2.066 mmol/L
Blood glucose level, 14 days after administration [1]: 17.54 ± 1.222 mmol/L
blood glucose level, 7 days after administration [1]: 18.64 ± 0.783 mmol/L

— patent US8637092B2, “Pharmaceutical composition for treating diabetes and its process for preparation” (Tasly Pharmaceutical Group Co., Ltd., priority 2007, dated 2014)
